From patent US11634366B2, “Plant growth enhancer using carbon dioxide to increase plant yield and method of increasing plant yield” (Innovations for World Nutrition, LLC, priority 2020, dated 2023)

Legend:
[1] = system: Oryza sativa long grain rice variety LaKast; assay: Example 2 carbon dioxide in air bubbled into root zone of paddy rice: roots and foliage at 24 days; assay type: in vivo; conditions: for Dry Foliage Weight: total of ten plants; for Dry Root Weight: total of ten plants of one container; for % Difference in Total Nitrogen Uptake: vs air
Protocol: (§1) Example 2 tests were conducted to test whether carbon dioxide alone delivered to the roots of rice plants improves the rough rice yield and the root growth. For this example Oryza sativa long grain rice variety LaKast™ seed treated with CruiserMaxx® (an insecticide and fungicide) was carefully selected as representative of all rice grown commercially and provides an excellent model for testing commercial rice.
(§2) For the Example 2 tests, carbon dioxide diluted with air in selected amounts was bubbled into the root zone of paddy rice. The rice was planted in 18.9 L (5 gallon) containers which are 30.5 cm (12 inches) in diameter and 35.6 cm (14 inches) deep, and sets of 8 containers all received the same gas mixture. The tests were designed to end after 17 weeks, but some containers were removed earlier to visually check the roots for amount of growth.
(§3) For the Example 2 tests, the following gas mixtures were used: Air • 0.2% carbon dioxide in air • 0.5% carbon dioxide in air • 1.0% carbon dioxide in air • 2.0% carbon dioxide in air • 5.0% carbon dioxide in air • Note: 0.2% is approximately 5 times the amount of carbon dioxide currently found naturally in air
(§4) 18.9 L (5 gallon) containers were prepared by placing an aquatic gas diffuser attached to tubing at the bottom of each container and then filling the container 10.2 cm (4 inches) from the top with sieved top soil. The containers were placed on tables in a greenhouse in groups of eight so that all received approximately the same amount of light. Each group of eight containers was attached to a tank of gas with the gas being supplied through a regulator to a flow meter and then to a set of eight valves with each one controlling the gas mixture to a single container. A total of forty-eight containers were prepared, and twenty-four containers were placed on each table. Starter phosphorus was added to the soil by mixing 1.7 g of triple super phosphate into the top 7.6 cm (3 inches) of soil in each container. Soil was also given addition starter fertilizer by dissolving 150 g of urea (for nitrogen), 132 g of potassium chloride (for potassium), and 1236 g of Epsom salts (magnesium sulfate heptahydrate for magnesium) in 12 liters of water. Each container was then given 200 mL of this solution. Later, zinc was added using zinc sulfate. The containers were flooded to 1.3 cm (0.5 inches) above the surface of the soil using collected rainwater. On May 20, 2016, the rice seed was presoaked for 24 hours and then drained for 24 hours was dropped on the surface of the soil in each container. After the rice was established, the plants were thinned to 10 plants per container. At a later date, the plants were thinned again to six plants per container. The gas mixtures to the containers were started on May 20, 2016 and adjusted to an initial flow meter setting of 42.5 liters/hr. (1.5 ft^3/hr.) with a steady flow of bubbles in each container. The flow rate was turned down to 14.2 liters/hr. (0.5 ft^3/hr.) on Jun. 14, 2016. The gas flow was supplied each weekday from 8:00 am to noon. During the testing, fans in the greenhouse created a constant airflow to prevent carbon dioxide concentration around a particular group of plants.
On May 25, 2016, 10.6 g of zinc sulfate was dissolved in 10 L of water and each container was given 200 mL of this solution. As the plants grew, the flood waters were gradually raised until they reached a depth of three inches above the soil surface. A flood water depth of 5.1 to 7.6 cm (2 to 3 inches) was maintained for the remainder of the test. On Jun. 13, 2016, one front container (containing 10 plants each) for each level of carbon dioxide was withdrawn for measurement and the plants were gently removed and thoroughly cleaned. The plants and roots were then dried in an oven overnight at 80° C. The next day, the roots were trimmed and weighed. Table 6 presents the total root weights and total foliage weights of the ten plants for each container of plants. […]

[2] = system: Oryza sativa long grain rice variety LaKast; assay: Example 2 carbon dioxide in air bubbled into root zone of paddy rice: root weights and rough rice yield at harvest; assay type: in vivo; conditions: for % Difference (root weight vs Air) / Dry Root Weight: at harvest; for Dry Root Weight: average of two containers; for Rough Rice Yield Weight: dry weight at harvest
Protocol: as §1, §2, §3, §4
On Jun. 20, 2016, the rice plants of Example 2 were thinned to six plants per container. On Aug. 1, 2016, additional nitrogen and triple super phosphate (TSP) was added to each container at the rate of 0.57 g TSP in all containers, 0.87 g of urea per container being fed normal air, and 2.27 g ammonium bicarbonate (equivalent nitrogen content as 0.87 g of urea) for the rest of the containers. This introduction of nitrogen and phosphates was to ensure no limitation in nitrogen and phosphorus for the plants and therefore ensure the testing validity of introducing carbon dioxide as a gas to the roots of the plants.
The rough rice for the Example 2 tests was harvested on Sep. 19, 2016. The rough rice was separated, and dried for seven days at 40° C. […]

Which “% Difference of Root Weight as Compared to Air” value ([1]; 0.5% CO2 in air) does the source give for `O=C=O` [CO2, carbon dioxide] here?
The value was 0%.

And the “Total Nitrogen Uptake by Foliage” value ([1]; 0.5% CO2 in air)?
The value was 0.156 g.

And the “Dry Foliage Weight” value ([1]; 0.5% CO2 in air)?
Its value is 3.48 g.

What about the “Dry Root Weight” value ([1]; 0.5% CO2 in air) of the same compound?
The value was 1.26 g.

And the “% Difference in Total Nitrogen Uptake” value ([1]; 0.5% CO2 in air)?
Its value is 8.33%.

And the “Total Nitrogen Uptake by Foliage” value ([1]; 2.0% CO2 in air)?
The value was 0.151 g.

What about the “Dry Foliage Weight” value ([1]; 2.0% CO2 in air) of the same compound?
Its value is 3.43 g.

And the “Dry Root Weight” value ([1]; 2.0% CO2 in air)?
The value was 2.08 g.

And the “% Difference in Total Nitrogen Uptake” value ([1]; 2.0% CO2 in air)?
The value was 4.86%.

What about the “weight of the foliage compared with container receiving solely air” value ([1]; each container receiving elevated carbon dioxide, in words) of the same compound?
The value was “slightly more”.

What about the “% Difference (rough rice yield vs Air)” value ([2]; 0.2% CO2 in air) of the same compound?
Its value is 2.9%.

And the “% Difference (root weight vs Air)” value ([2]; 0.2% CO2 in air)?
The value was “+35.8%”.

And the “Dry Root Weight” value ([2]; 0.2% CO2 in air)?
The value was 62.5 g.

And the “Rough Rice Yield Weight” value ([2]; 0.2% CO2 in air)?
The value was 91.5 g.

What about the “% Difference (rough rice yield vs Air)” value ([2]; 0.5% CO2 in air) of the same compound?
Its value is 6.1%.

And the “% Difference (root weight vs Air)” value ([2]; 0.5% CO2 in air)?
The value was “+6.4%”.

And the “Dry Root Weight” value ([2]; 0.5% CO2 in air)?
Its value is 49.0 g.

And the “Rough Rice Yield Weight” value ([2]; 0.5% CO2 in air)?
The value was 94.3 g.

And the “% Difference (rough rice yield vs Air)” value ([2]; 1.0% CO2 in air)?
Its value is 11.9%.

What about the “% Difference (root weight vs Air)” value ([2]; 1.0% CO2 in air) of the same compound?
The value was “+9.6%”.

What about the “Dry Root Weight” value ([2]; 1.0% CO2 in air) of the same compound?
The value was 50.4 g.

What about the “Rough Rice Yield Weight” value ([2]; 1.0% CO2 in air) of the same compound?
Its value is 99.5 g.

What about the “% Difference (rough rice yield vs Air)” value ([2]; 2.0% CO2 in air) of the same compound?
Its value is 11.9%.

And the “% Difference (root weight vs Air)” value ([2]; 2.0% CO2 in air)?
The value was “+11.1%”.

What about the “Dry Root Weight” value ([2]; 2.0% CO2 in air) of the same compound?
Its value is 51.1 g.

And the “Rough Rice Yield Weight” value ([2]; 2.0% CO2 in air)?
The value was 99.5 g.

What about the “% Difference (rough rice yield vs Air)” value ([2]; 5.0% CO2 in air) of the same compound?
The value was −3.0%.

And the “% Difference (root weight vs Air)” value ([2]; 5.0% CO2 in air)?
The value was “+20.7%”.

And the “Dry Root Weight” value ([2]; 5.0% CO2 in air)?
The value was 55.5 g.

And the “Rough Rice Yield Weight” value ([2]; 5.0% CO2 in air)?
Its value is 86.2 g.

What about the “average root weights at harvest compared with plants receiving just air” value ([2]; all containers receiving elevated carbon dioxide at roots, in words) of the same compound?
Its value is “higher”.

And the “grain yields compared with plants receiving just air” value ([2]; elevated carbon dioxide, with the exception of 5.0% carbon dioxide mixed with air, in words)?
Its value is “higher”.
